Results on 89 molecules are retold here after PubChem BioAssay AID651677 (The Scripps Research Institute Molecular Screening Center, 2012).

Values joined by “and” are separate entries in the source; they are usually repeats but may differ in a detail not shown here. Identical values can stand only once. Active and inactive are the calls of the source. No rule for the calls is given here.

For the test, the target named is Perilipin-5 (Homo sapiens) + 1-acylglycerol-3-phosphate O-acyltransferase ABHD5 (Homo sapiens) (UniProt Q00G26+Q8WTS1). In words: blockers of ABHD5 binding to perilipin-5 – biochemical, luminescence, dose response (AID 651677). Conditions: ABHD5-PLIN5 interaction.
Sequence of Perilipin-5 (Homo sapiens) + 1-acylglycerol-3-phosphate O-acyltransferase ABHD5 (Homo sapiens) (Q00G26 whole entry, looked up): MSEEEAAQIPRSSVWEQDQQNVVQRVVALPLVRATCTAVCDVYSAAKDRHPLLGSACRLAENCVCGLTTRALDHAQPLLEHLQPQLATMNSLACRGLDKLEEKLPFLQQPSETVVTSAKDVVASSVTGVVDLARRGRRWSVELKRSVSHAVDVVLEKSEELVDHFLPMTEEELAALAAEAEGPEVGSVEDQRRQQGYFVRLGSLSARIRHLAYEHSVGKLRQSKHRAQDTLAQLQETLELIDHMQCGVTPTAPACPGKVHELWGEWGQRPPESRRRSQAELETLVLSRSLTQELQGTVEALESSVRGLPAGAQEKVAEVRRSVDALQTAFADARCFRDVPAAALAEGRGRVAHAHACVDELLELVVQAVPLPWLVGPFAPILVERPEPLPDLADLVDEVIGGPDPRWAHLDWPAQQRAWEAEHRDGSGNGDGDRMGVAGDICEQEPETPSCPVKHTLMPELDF
Sequence of Perilipin-5 (Homo sapiens) + 1-acylglycerol-3-phosphate O-acyltransferase ABHD5 (Homo sapiens) (Q8WTS1 whole entry, looked up): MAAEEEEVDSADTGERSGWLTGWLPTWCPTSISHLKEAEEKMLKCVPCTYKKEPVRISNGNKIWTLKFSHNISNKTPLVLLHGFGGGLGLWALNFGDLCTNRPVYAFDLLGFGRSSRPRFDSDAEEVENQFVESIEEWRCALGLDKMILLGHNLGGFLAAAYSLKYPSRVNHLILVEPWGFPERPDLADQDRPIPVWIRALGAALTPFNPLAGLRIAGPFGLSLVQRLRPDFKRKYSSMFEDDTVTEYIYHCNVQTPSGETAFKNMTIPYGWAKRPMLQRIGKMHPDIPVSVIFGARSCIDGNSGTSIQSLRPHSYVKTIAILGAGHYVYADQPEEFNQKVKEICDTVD
Regarding `CC(=O)Oc1c(Br)cc(N(C(C)=O)S(=O)(=O)c2ccccc2)c2ccccc12`, the half-maximal inhibitory concentration (IC50) is 6.41 µM.
Consider `CN1[C@@H]2CC[C@H]1CC(OC1c3ccccc3CCc3ccccc31)C2` (some centres undefined), for which the IC50 is 2.49 µM.
As to `CN(C)CCCN(C(=O)CCc1ccccc1)c1nc2ccc(Br)cc2s1`, the IC50 is 7.91 µM.
For the molecule `O=C1/C(=C/c2cccnc2)CC/C1=C\c1cccnc1`, the IC50 is 3.31 µM.
In the case of `Cc1nc2c(o1)CCc1ccccc1C2N1CCN(C)CC1` (centres undefined), the 50% inhibitory concentration (IC50) was 8.83 µM.
For `CCCCC(=O)NC(c1cccc([N+](=O)[O-])c1)c1ccc2cccnc2c1O` (centres undefined) the value was > 39.8 µM (inactive); for `O=C(C[n+]1cccc(CNC(=O)c2ccc(OC(F)F)cc2)c1)Nc1cccc(C(F)(F)F)c1`, “inactive”; for `CC1Sc2ccc(S(=O)(=O)N3CCC(C(=O)NCc4ccc(Cl)cc4)CC3)cc2NC1=O` (centres undefined), “inactive”.
For `CC1=CC(C)(C)Nc2ccc(OC(=O)c3cccnc3)cc21`, the IC50 is 2.23 µM.
`O=C(NCc1ccccc1)C(C1CC1)n1c(=O)c(-c2ccco2)nc2ccccc21` (centres undefined): the IC50 was 7.2 µM.
For the molecule `C#CCN(C[C@@H]1[C@@H](OC(=O)NCC2CCCCC2)[C@@H](OC(=O)NCC2CCCCC2)Cn2c(=O)ccc(=O)n21)S(=O)(=O)c1ccc(C)cc1`, the IC50 is 3.6 µM.
In the case of `CN1CCC(=C2c3ccccc3CC(=O)c3sccc32)CC1`, the IC50 entry was “inactive”.
On to `O=C(Cn1c(=O)n(Cc2ccco2)c(=O)c2c3c(sc21)CCCC3)Nc1ccccc1`, for which the IC50 entry was “inactive”.
Turning to `O=C(NC1CCCCC1)C(c1cc2ccccc2o1)n1c(=O)c(-c2ccco2)nc2ccccc21` (centres undefined), the IC50 is 1.36 µM.
Regarding `CSc1nnc(NC(=O)c2nc(S(=O)(=O)Cc3cccc(C)c3)ncc2Cl)s1`, the IC50 was 2.69 µM.
Consider `COc1ccccc1/C=C/C(=O)c1ccccc1`, for which the IC50 was 6.63 µM.
Regarding `CCOC(=O)N1CCN(C(=O)C[C@@H]2C[C@@]3(C(=O)OCC)CCC=C3N(Cc3ccc(Cl)cc3Cl)C2=O)CC1`, the IC50 entry is “inactive”.
In the case of `CCOC(=O)c1c(NC(C)=O)sc2c1CCC(C=O)=C2Sc1ccccc1`, the IC50 is 2.4 µM.
For `NC(=NCCCCCCN=C(N)/N=C(\N)Nc1ccc(Cl)cc1)/N=C(\N)Nc1ccc(Cl)cc1`, the IC50 was 3.83 µM and 1.66 µM.
For `CN1CCC[C@@H]1CCO[C@](C)(c1ccccc1)c1ccc(Cl)cc1`, the IC50 result is “inactive”.
For the molecule `COc1ccc(C(C(=O)Nc2ccc3c(c2)OCCO3)n2c(=O)c(-c3ccco3)nc3ccccc32)cc1` (centres undefined), the IC50 was 7.56 µM.
In the case of `CN(C)CCOc1ccc(/C(=C(/CCCl)c2ccccc2)c2ccccc2)cc1`, the half-inhibitory concentration (IC50) was 1.38 µM.
Under `CC(C)c1nnc(NC(=O)c2nc(S(=O)(=O)Cc3ccc(F)cc3)ncc2Cl)s1` stands 1.94 µM; under `Cc1cc(C)c(NC(=O)C[N+](C)(C)CC(O)COc2cccc3ccccc23)c(C)c1` (centres undefined), 7.49 µM; under `COc1ccc(NC(=O)C(c2ccc(OC)cc2)n2c(=O)c(-c3ccco3)nc3ccccc32)cc1` (centres undefined), 6.13 µM.
For `Cc1ccc2sc(N(CCCN(C)C)C(=O)CN3C(=O)c4ccccc4C3=O)nc2c1C` the value was “inactive”.
For `Cc1cccc(C)c1NC(=O)C(c1ccccc1)n1c(=O)c(-c2ccco2)nc2ccccc21` (centres undefined) the value was 5.19 µM; for `COc1ccc(NC(=O)c2cc3ccccc3cc2O)cc1`, 9.05 µM; for `COC/C=C/C1=CC2=CC(=O)C(C)(OC(=O)C3CCCC3)C(=O)C2=CO1` (centres undefined), 1.75 µM.
For `N#Cc1ncc(Cc2ccccc2)nc1C#N`, the 50% inhibitory concentration (IC50) was 8.58 µM.
For the molecule `COc1ccc(C(C(=O)NCc2ccccc2)n2c(=O)c(-c3ccco3)nc3ccccc32)cc1` (centres undefined), the IC50 was 2.22 µM.
In the case of `O=C1NC(=S)NC(=O)C12C(c1ccccc1)NC(=S)NC2c1ccccc1` (centres undefined), the IC50 is 4.39 µM.
For the molecule `CC(C)c1ccc(N2C=Nc3ccc(C(C)C)cc3C2)cc1`, the IC50 result is “inactive”.
For `Cc1ccc(CS(=O)(=O)c2ncc(Cl)c(C(=O)Nc3nnc(C(C)C)s3)n2)cc1`, the IC50 is 1.38 µM.
`CC(C)(C)NC(=O)C(c1cccc2ccccc12)n1c(=O)c(-c2ccco2)nc2ccccc21` (centres undefined): the IC50 was 2.39 µM.
Under `CN(C)CCOC1(Cc2ccc(F)cc2)CCC(C(C)(C)C)CC1` (centres undefined) stands 7.33 µM.
For `CCC(c1nc2ccccc2[nH]1)n1c(=O)c(-c2ccco2)nc2ccccc21` (centres undefined), the IC50 was 3.11 µM.
With `CC(c1nc2ccccc2[nH]1)n1c(=O)c(-c2ccco2)nc2ccccc21` (centres undefined), the IC50 is 2.76 µM.
Consider `O=C(Nc1ccc2c(c1)OCCO2)C(c1ccnc2ccccc12)n1c(=O)c(-c2ccco2)nc2ccccc21` (centres undefined), for which the IC50 entry is “inactive”.
Turning to `O=C(Nc1ccc2c(c1)OCCO2)C(c1ccccc1F)n1c(=O)c(-c2ccco2)nc2ccccc21` (centres undefined), the IC50 result was “inactive”.
On to `O=C(NC1CCCCC1)C(c1cccc2ccccc12)n1c(=O)c(-c2ccco2)nc2ccccc21` (centres undefined), for which the IC50 is 0.94 µM.
For the molecule `CN(C)CCN(Cc1ccco1)c1ccccn1`, the IC50 is 7.75 µM.
Consider `Cc1ccc(/C(O)=C2/C(=O)C(=O)OC2c2ccc(Cl)cc2)cc1` (centres undefined), for which the half-maximal inhibitory concentration (IC50) is 9.72 µM.
For `CS(=O)(=O)c1ccc(C(=O)NCCN2C(=O)S/C(=C\c3cccnc3)C2=O)cc1[N+](=O)[O-]` the value was 3.67 µM; for `O=C1NC(=O)N(Cc2ccc(F)cc2)C(=O)/C1=C\C=C\c1ccco1`, 1.36 µM; for `CC1CN(Cc2c(O)ccc3c2oc(=O)c2ccccc23)CC(C)O1` (centres undefined), 2.12 µM.
For the molecule `COc1cc(C(C)=O)ccc1OCc1cn(CC(=O)c2ccc(O)cc2)nn1`, the IC50 was 4.43 µM.
With `O=C(/C=C/c1ccc2c(c1)OCCCO2)c1ccccc1O`, the IC50 was 5.65 µM.
For `CC(C)(C)NC(=O)C(c1ccccc1)n1c(=O)c(-c2ccco2)nc2ccccc21` (centres undefined) the value was 2.16 µM.
For the molecule `CCN(CC)CCOCCOC(=O)C1(c2ccccc2)CCCC1`, the concentration for half-maximal inhibition (IC50) was 2.03 µM.
Consider `CCOC(=O)c1c(NC(=O)/C=C/C(=O)O)sc(C)c1-c1ccc(C(C)(C)C)cc1`, for which the IC50 was 6.74 µM.
Turning to `C=CC(=O)N1c2ccccc2Sc2ccc(NC(=O)OCC)cc21`, the IC50 is 6.05 µM.
Consider `Cc1ccc(SC2=C(Sc3ccc(C)cc3)C(=O)c3ccccc3C2=O)cc1`, for which the IC50 was 1 µM.
For `COC(=O)c1cc(=O)n(-c2ccc(F)cc2)c(=Nc2ccc(F)cc2)s1`, the IC50 was 3.09 µM.
For the molecule `CN1C(=O)/C(=C/C=C/c2ccco2)C(=O)NC1=S`, the IC50 was 2.96 µM.
For the molecule `CCCCCNC(=O)C(C1CC1)n1c(=O)c(-c2ccco2)nc2ccccc21` (centres undefined), the IC50 was 9.79 µM.
On to `COc1ccc(/C=C/C(=O)c2cc(F)ccc2OC(=O)c2ccc(OC)c(OC)c2)cc1OC`, for which the IC50 is 2.74 µM.
`O=S(=O)(NC1=NCCCCC1)c1ccc2sc(NS(=O)(=O)c3ccc4ccccc4c3)nc2c1`: the IC50 result is “inactive”.
Turning to `CN(C)CCCN(C(=O)CCc1ccccc1)c1nc2ccc(Cl)cc2s1`, the IC50 is 7.37 µM.
Consider `COc1ccccc1C=CC(=O)C=Cc1ccccc1OC`, for which the IC50 is 4.79 µM.
As for `CCc1nnc(NC(=O)c2nc(S(=O)(=O)Cc3cccc(C)c3)ncc2Cl)s1`, the IC50 is 3.33 µM.
On to `Cc1ccc(S(=O)(=O)N2C[C@H]3n4c(=O)ccc(=O)n4C[C@H](OC(=O)Nc4cccs4)[C@@]3(O)C2)cc1`, for which the IC50 was 7.93 µM.
As for `COC(=O)c1ccc(Cn2cc(/C=C\[N+](=O)[O-])c3ccccc32)o1`, the IC50 is 6.26 µM.
Take `CC(C)(C)NC(=O)C(c1ccnc2ccccc12)n1c(=O)c(-c2ccco2)nc2ccccc21` (centres undefined): the IC50 is 4.81 µM.
In the case of `O=C(Nc1ccc(Cl)cc1)/C(=C/c1cccc(O)c1)c1nc2ccccc2s1`, the IC50 was 2.1 µM.
As to `CCCCCNC(=O)C(c1ccc(C(F)(F)F)cc1)n1c(=O)c(-c2ccco2)nc2ccccc21` (centres undefined), the IC50 was 1.82 µM.
Regarding `CC(C)(C)NC(=O)C(c1ccc(-c2ccccc2)cc1)n1c(=O)c(-c2ccco2)nc2ccccc21` (centres undefined), the IC50 was 1.29 µM.
Under `CCSc1nnc(NC(=O)c2nc(S(=O)(=O)Cc3ccc(F)cc3)ncc2Cl)s1` stands 2.36 µM; under `O=C(NCc1ccccc1)C(c1ccccc1F)n1c(=O)c(-c2ccco2)nc2ccccc21` (centres undefined), 2.27 µM; under `N#Cc1ccc(C(C(=O)NCc2ccccc2)n2c(=O)c(-c3ccco3)nc3ccccc32)cc1` (centres undefined), 1.56 µM.
Turning to `CC(CCc1ccco1)NC(=O)CCc1nnc2ccc(NCc3ccccc3Cl)nn12` (centres undefined), the IC50 was 8.97 µM.
Consider `Cc1ccc(C(=O)c2coc3c2C(=O)C(=O)c2ccccc2-3)cc1`, for which the IC50 was 2.53 µM.
For `Cc1cccc(C)c1NC(=O)C(c1ccc(C(F)(F)F)cc1)n1c(=O)c(-c2ccco2)nc2ccccc21` (centres undefined) the value was 2.22 µM; for `C#CCOCCOCCOCCNc1nc(N2CCN(C(=O)CCCCCCCCCCNC(=O)[C@@H](CCSC)n3cc(CCO)nn3)CC2)nc(N2CCN(C(=O)CCCCCCCCCCNC(=O)[C@@H]([C@H](C)O)n3cc(C)nn3)CC2)n1`, > 39.8 µM (inactive).
Under `O=c1nc(/C=C/c2ccc(Cl)cc2Cl)cc(C(F)(F)F)[nH]1` stands 3.48 µM.
For `Oc1c(C(c2ccccc2)N2CCCCC2)ccc2ccccc12` (centres undefined), the IC50 is 0.845 µM.
Turning to `CCOC(=O)/C(=C\c1ccc(Cl)cc1)c1nc2sc(C)c(C)c2c(=O)[nH]1`, the IC50 is 0.75 µM.
As to `CN(C)CCOc1ccc(-c2c(-c3ccccc3)sc3ccccc23)cc1`, the IC50 entry was “inactive”.
Take `COc1ccc(OCc2cn(CC(=O)c3ccc(O)cc3)nn2)cc1`: the IC50 is 3.07 µM.
Turning to `O=CC1=C(c2ccccc2)Oc2ccccc2O1`, the IC50 was 3.52 µM.
With `CC1=CC(C)(C)Nc2ccc(OC(=O)CN3C(=O)c4cccc5cccc(c45)C3=O)cc21`, the half-inhibitory concentration (IC50) was 6.89 µM.
In the case of `CC(=O)Cc1cc(O)c2ccccc2c1OC(=O)c1ccc(Br)cc1`, the IC50 was 2.52 µM.
`Cc1oc2c(c1C(=O)c1ccc(Cl)cc1)C(=O)C(=O)c1ccccc1-2`: the IC50 was 1.99 µM.
In the case of `O=C(/C(=C/c1ccccc1)n1cncn1)c1ccc(Cl)cc1Cl`, the concentration for half-maximal inhibition (IC50) was 2.49 µM.
As to `FC(F)(F)c1cccc(NC(=S)N(CCCN2CCCC2)Cc2cccn2Cc2ccc(Cl)cc2)c1`, the IC50 result is “inactive”.
For `CC1(C)C2CCC(CN=C(N)CSS(=O)(=O)O)C1C2` (centres undefined), the IC50 is 4.27 µM.
As for `O=C1C(=O)c2c(C(=O)c3ccccc3)coc2-c2ccccc21`, the IC50 was 2.93 µM.
For `CSC(=Nc1ccccc1)N=C(SCc1ccccc1)N(C)C` the value was 1.17 µM; for `CCCCCNC(=O)C(c1cccc2ccccc12)n1c(=O)c(-c2ccco2)nc2ccccc21` (centres undefined), 1.57 µM.

Broadly, the IC50 is the concentration that gives 50% inhibition.
